Tested on: Pseudomonas putida biofilms
Assay: Biofilm eradication (MBEC) test: viable plate counts of biofilms on stainless steel 316 coupons from a CDC Biofilm reactor after two hours of treatment
Format: cell-based
Conditions: 20 mg/L MCA alone, viable biofilm population vs untreated control, 2 h, 28° C.
Protocol: In this work the efficacy of the agents alone and in combination were determined by measuring the number of viable cells in model biofilms remaining after treatment. The Minimum Biofilm Eradication value (MBEC) is defined as a 95% reduction in the number of viable cells compared to the untreated control.
Dose response studies were performed to determine the Minimum Biofilm Eradication Concentration (MBEC) for monochloramine and PEI alone. The MBEC is defined as the concentration of agent that reduces the viable biofilm population by 95% of the untreated control value as measured by viable plate counts. Experiments were then performed to determine the result of combining the two agents, oxidizing biocide monochloramine and dispersant PEI alone, on biofilm populations. The experiments examined three concentrations of monochloramine with four concentrations of PEI alone.
M9YG media is a simple minimal salt medium supplemented with 500 mg/L glucose and 0.01% yeast extract. The salts composition was intended to mimic a typical cooling tower water composition. […]
Briefly, biofilms were grown on stainless steel 316 coupons in a CDC Biofilm reactor using M9YG minimal salts growth media for a period of twenty-four hours. […] Viable cells released into the fluid were then determined by a plating method.

For `NCl` [MCA, monochloramine], the “% reduction” value was 93.58% and the “% reduction” value (listed as monochloramine) was “greater than 90%”.

Reference: US11104593B2, “Compositions exhibiting synergy in biofilm control” (SOLENIS TECHNOLOGIES, L.P., priority 2017, dated 2021)
